Test results from patent US9382288B2, “Derivatives of steroid benzylamines, having an antiparasitic antibacterial, antimycotic and/or antiviral action” (Justus-Liebig-Universitat Giessen, priority 2010, dated 2016).
pIC50: −log10 of the molar value. Converted amounts (≈) assume the structure as drawn. Read-outs that look alike come from different tables or passages of the source.

Tests used:
Cytotoxicity HeLa = settings: human, HeLa cells
adult S. mansoni = assay: In vitro treatment of adult S. mansoni couples, visual evaluation by microscope; set-up: species or system Schistosoma mansoni
Procedure: Compounds 2, 18 and 41 were tested by Prof. Dr. Grevelding, Parasitology, Veterinary Medicine, University of Gieβen, also in the parasite Schistosoma mansoni. […] Each test was performed with 3 groups of 10 worms each. Remarkable was that different effects on the worms with respect to morphological alterations could be observed. […] Exemplarily shown in FIGS. 1 and 2 is an image of a control assay and an image of trematodes after 48 hours of incubation with compound 18.
Each one of the three groups (one group per well) comprised 10 pairs of adult S. mansoni were incubated with the substance to be tested for 24 h. As control served three groups which were incubated with medium (M199) and three groups which were incubated with medium and DMSO as solvent of the test substances. Evaluation was done visually using a microscope.
In a second experimental setting, again three groups each (one group per well) with 8 pairs of adult S. mansoni each were incubated with the compound to be tested, however for 48 h in this experiment. As control served three groups which were either incubated with medium (M199) or medium and DMSO as solvent of the test substances. Evaluation was done visually using a microscope.

[1] = system: Plasmodium berghei GFP MRA-865; assay: Plasmodium berghei infection in the mouse model (in vivo); settings: for Activity (%): parasitemia day 4 vs untreated controls
[2] = system: P. falciparum strain 3D7-Netherlands; assay: In vitro IC50, 3H-hypoxanthine incorporation, P. falciparum 3D7; type: cell-based, Plasmodium falciparum; settings: for IC50: Plasmodium falciparum; for in vitro activity in words: compared with compound 1
L929 = assay: Antiproliferative activity L929; type: cell-based; settings: Mus musculus, read-out: IC50 [μg/ml] Antiproliferative activity L929
K562 = assay: Antiproliferative activity K562; type: cell-based; settings: Homo sapiens, read-out: IC50 [μg/ml] Antiproliferative activity K562
[3] = system: Trypanosoma brucei brucei S427; assay: In vitro efficacy against Trypanosoma brucei; type: cell-based
Procedure: Compounds 18 and 41 were assessed at the London School of Hygiene and Tropical Medicine in vitro with respect to their efficacy against the parasite Trypanosoma brucei brucei […].

[4] = 24 hours, 100 μM, 3 groups of 10 pairs
[5] = 48 hours, 20 μM, 3 groups of 8 pairs
[6] = 48 hours, 100 μM, 3 groups of 8 pairs
[7] = 3D7, read-out: IC50 [ng/ml] P.f.(3D7)
[8] = P. falciparum strain 3D7, read-out: IC50 [nM] P.f.(3D7)
[9] = P. falciparum strain 3D7, read-out: IC50 [ng/ml] P.f.(3D7)

SMILES: COc1ccc2c(c1)CCC1C2CC[C@@]2(C)C1CC[C@H]2NCc1ccccc1O (stereo partly drawn) [Compound 2, 17α-(2-Hydroxyphenyl-methylamino)-3-methoxy-estra-1,3,5(10)-triene]
- IC50 (Cytotoxicity HeLa): 3.1 mg/L (≈ 7.92 µM)
- morphological alterations of the worms (adult S. mansoni): ventrally curved in a cork-screw like manner
- egg production (adult S. mansoni; 24 hours, 100 μM): Almost no eggs were detectable
- motility / vitality (adult S. mansoni; 24 hours, 100 μM): Trematodes moved only slightly and with twitching movements
- couples detectable (adult S. mansoni; [4]): in two of the groups each one couple was detected
- egg production (adult S. mansoni; 48 hours, 20 μM): No eggs were detectable
- motility / vitality (adult S. mansoni; 48 hours, 20 μM): The trematodes barely moved
- couples detectable (adult S. mansoni; [5]): no couples could be observed in any of the groups
- egg production (adult S. mansoni; 48 hours, 100 μM): No eggs were detectable
- motility / vitality (adult S. mansoni; 48 hours, 100 μM): All trematodes were dead
- couples detectable (adult S. mansoni; [6]): no couples could be observed in any of the groups
- life span in words ([1]; all dosages and routes of administration tested): considerably extended the life span
- MSD (days) ([1]; oral 3 × 10 mg/kg): 8.7 (n = 3) days
- Activity (%) ([1]; oral 3 × 10 mg/kg): 46.8%
- MSD (days) ([1]; oral 3 × 30 mg/kg): 13 (n = 3) days
- Activity (%) ([1]; oral 3 × 30 mg/kg): 99.4%
- MSD (days) ([1]; oral 3 × 100 mg/kg): 15.33 (n = 3) days
- Activity (%) ([1]; oral 3 × 100 mg/kg): 99.7%
- MSD (days) ([1]; sc 3 × 10 mg/kg): 7 (n = 3) days
- Activity (%) ([1]; sc 3 × 10 mg/kg): 17.7%
- MSD (days) ([1]; sc 3 × 30 mg/kg): 14 (n = 3) days
- Activity (%) ([1]; sc 3 × 30 mg/kg): 61.8%
- IC50 [2, 7]: 2.9 ng/mL
- IC50 [2, 8]: 7.4 nM
- IC50 (L929): 1.9 µg/mL (≈ 4.85 µM)
- IC50 (K562): 0.5 µg/mL (≈ 1.28 µM)

SMILES: COc1ccc2c(c1)CCC1C2CC[C@]2(C)C[C@@H](NCc3ccccc3O)CC12 (stereo partly drawn) [Compound 3, 16β-(2-Hydroxyphenyl-methylamino)-3-methoxy-estra-1,3,5(10)-triene]
- IC50 (Cytotoxicity HeLa): 4.4 mg/L (≈ 11.2 µM)
- IC50 [2, 8]: 62 nM
- IC50 [2, 9]: 24.5 ng/mL
- in vitro activity in words [2]: comparable activity
- IC50 (L929): 1.9 µg/mL (≈ 4.85 µM)
- IC50 (K562): 0.7 µg/mL (≈ 1.79 µM)

SMILES: COc1ccc2c(c1)CCC1C2CC[C@]2(C)C[C@H](NCc3ccccc3O)CC12 (stereo partly drawn) [Compound 4, 16α-(2-Hydroxyphenyl-methylamino)-3-methoxy-estra-1,3,5(10)-triene]
- IC50 (Cytotoxicity HeLa): 4.7 mg/L (≈ 12 µM)
- IC50 [2, 8]: 41.5 nM
- IC50 [2, 9]: 16.4 ng/mL
- in vitro activity in words [2]: comparable activity
- IC50 (L929): 1.6 µg/mL (≈ 4.09 µM)
- IC50 (K562): 1.3 µg/mL (≈ 3.32 µM)

SMILES: COc1ccc2c(c1)CCC1C2CC[C@@]2(C)C1CC[C@H]2NCc1ccccc1OC (stereo partly drawn) [Compound 5, 17α-(2-Methoxyphenyl-methylamino)-3-methoxy-estra-1,3,5(10)-triene]
- IC50 [2, 8]: 879 nM
- IC50 [2, 9]: 578 ng/mL

SMILES: COc1ccc2c(c1)CCC1C2CC[C@@]2(C)C1CC[C@H]2NCc1cccc(O)c1 (stereo partly drawn) [Compound 6, 17α-(3-Hydroxyphenyl-methylamino)-3-methoxy-estra-1,3,5(10)-triene]
- IC50 [2, 8]: 440 nM
- IC50 [2, 9]: 172 ng/mL

SMILES: COc1ccc2c(c1)CCC1C2CC[C@@]2(C)C1CC[C@H]2NCc1ccc(O)cc1 (stereo partly drawn) [Compound 7]
- IC50 [2, 8]: 115 nM
- IC50 [2, 9]: 45 ng/mL

SMILES: COc1ccc2c(c1)CCC1C2CC[C@@]2(C)C1CC[C@H]2NCc1c(O)ccc2ccccc12 (stereo partly drawn) [Compound 17, 17α-[(2-Hydroxynaphth-1-yl)-methylamino]-3-methoxy-estra-1,3,5(10)-triene]
- IC50 [2, 8]: 72.8 nM
- IC50 [2, 9]: 32.1 ng/mL

SMILES: COc1ccc2c(c1)CCC1C2CC[C@@]2(C)C1CC[C@@H]2NCc1cc2ccccc2cc1O (stereo partly drawn) [Compound 18, 17β-[(3-Hydroxynaphth-2-yl)-methylamino]-3-methoxy-estra-1,3,5(10)-triene]
- morphological alterations of the worms (adult S. mansoni): ventral bending
- egg production (adult S. mansoni; 24 hours, 20 μM): Almost no eggs were detectable
- motility / vitality (adult S. mansoni; 24 hours, 20 μM): Males barely moved and showed only twitching
- couples detectable (adult S. mansoni; 24 hours, 20 μM, 3 groups of 10 pairs): no couples could be detected
- egg production (adult S. mansoni; 24 hours, 100 μM): Almost no eggs were detectable
- motility / vitality (adult S. mansoni; 24 hours, 100 μM): The trematodes rarely showed slightly twitching movements
- couples detectable (adult S. mansoni; [4]): no couples could be detected
- egg production (adult S. mansoni; 48 hours, 20 μM): No eggs were detectable
- motility / vitality (adult S. mansoni; 48 hours, 20 μM): all worms were dead
- couples detectable (adult S. mansoni; [5]): no couples could be observed in any of the groups
- egg production (adult S. mansoni; 48 hours, 100 μM): No eggs were detectable
- motility / vitality (adult S. mansoni; 48 hours, 100 μM): all worms were dead
- couples detectable (adult S. mansoni; [6]): no couples could be observed in any of the groups
- pIC50 [3]: 6.03
- IC50 [2, 7]: 3.1 ng/mL
- IC50 [2, 8]: 7 nM

SMILES: COc1ccc2c(c1)CCC1C2CC[C@@]2(C)C1CC[C@@H]2NCc1c(O)ccc2ccccc12 (stereo partly drawn) [Compound 19, 17β-[(2-Hydroxynaphth-1-yl)-methylamino]-3-methoxy-estra-1,3,5(10)-triene hydroperchlorate]
- IC50 [2, 8]: 182 nM
- IC50 [2, 9]: 98.6 ng/mL

SMILES: COc1ccc2c(c1)CCC1C2CC[C@@]2(C)C1CC[C@@H]2NCc1cccc(O)c1 (stereo partly drawn) [Compound 20, 17β-(3-Hydroxyphenyl-methylamino)-3-methoxy-estra-1,3,5(10)-triene]
- IC50 [2, 8]: 733 nM
- IC50 [2, 9]: 287 ng/mL

SMILES: CCN(CC)c1ccc(CN[C@H]2CCC3C4CCc5cc(OC)ccc5C4CC[C@@]32C)c(O)c1 (stereo partly drawn) [Compound 23, 17β-[4-(N,N-Diethylamino)-2-hydroxyphenyl-methylamino]-3-methoxy-estra-1,3,5(10)-triene]
- IC50 [2, 8]: 716 nM
- IC50 [2, 9]: 331 ng/mL

SMILES: COc1ccc2c(c1)CC[C@@H]1[C@@H]2CC[C@]2(C)[C@@H](O)[C@H](N(C)c3cc4ccccc4cc3O)C[C@@H]12 [Compound 32, 16α-[(3-Hydroxy-naphth-2-yl)-methylamino]-17β-hydroxy-3-methoxy-estra-1,3,5(10)-triene]
- IC50 [2, 8]: 29.9 nM
- IC50 [2, 9]: 13.7 ng/mL

SMILES: COc1ccc2c(c1)CC[C@@H]1[C@@H]2CC[C@]2(C)[C@H](O)[C@H](N(C)c3cc4ccccc4cc3O)C[C@@H]12 [Compound 36, 16α-[(3-Hydroxy-naphth-2-yl)-methylamino]-17α-hydroxy-3-methoxy-estra-1,3,5(10)-triene]
- IC50 [2, 8]: 42.1 nM
- IC50 [2, 9]: 19.3 ng/mL

SMILES: COc1ccc2c(c1)CCC1C2CC[C@@]2(C)C1C[C@H](NCc1ccccc1O)[C@@H]2O (stereo partly drawn) [Compound 42, 16β-(2-Hydroxyphenyl-methylamino)-17β-hydroxy-3-methoxy-estra-1,3,5(10)-triene]
- IC50 [2, 8]: 227 nM
- IC50 [2, 9]: 91.3 ng/mL

SMILES: COc1ccc2c(c1)CCC1C2CC[C@@]2(C)C1C[C@@H](NCc1ccccc1O)[C@@H]2O (stereo partly drawn) [Compound 43, 16α-(2-Hydroxyphenyl-methylamino)-17β-hydroxy-3-methoxy-estra-1,3,5(10)-triene]
- IC50 (Cytotoxicity HeLa): 7.7 mg/L (≈ 18.9 µM)
- IC50 [2, 8]: 58.5 nM
- IC50 [2, 9]: 23.9 ng/mL
- IC50 (L929): 2 µg/mL (≈ 4.91 µM)
- IC50 (K562): 1.2 µg/mL (≈ 2.94 µM)

SMILES: COc1ccc2c(c1)CCC1C2CC[C@@]2(C)C1C[C@H](NCc1ccccc1O)[C@H]2O (stereo partly drawn) [Compound 44, 16β-(2-Hydroxyphenyl-methylamino)-17α-hydroxy-3-methoxy-estra-1,3,5(10)-triene]
- IC50 (Cytotoxicity HeLa): 3.4 mg/L (≈ 8.34 µM)
- IC50 [2, 8]: 676 nM
- IC50 [2, 9]: 275 ng/mL
- IC50 (L929): 2.5 µg/mL (≈ 6.13 µM)
- IC50 (K562): 0.85 µg/mL (≈ 2.09 µM)

SMILES: COc1ccc2c(c1)CCC1C2CC[C@@]2(C)C1C[C@@H](NCc1ccccc1O)[C@H]2O (stereo partly drawn) [Compound 45, 16α-(2-Hydroxyphenyl-methylamino)-17α-hydroxy-3-methoxy-estra-1,3,5(10)-triene]
- IC50 [2, 8]: 101 nM
- IC50 [2, 9]: 41 ng/mL

SMILES: COc1ccc2c(c1)CCC1C2CC[C@]2(C)C1C[C@H](NCc1ccccc1O)[C@@H]2O (stereo partly drawn) [Compound 47, 16β-(2-Hydroxyphenyl-methylamino)-17β-hydroxy-3-methoxy-13α-estra-1,3,5(10)-triene]
- IC50 [2, 8]: 140 nM
- IC50 [2, 9]: 57.3 ng/mL

SMILES: COc1ccc2c(c1)CCC1C2CC[C@]2(C)C1C[C@@H](NCc1ccccc1O)[C@@H]2O (stereo partly drawn) [Compound 48, 16α-(2-Hydroxyphenyl-methylamino)-17β-hydroxy-3-methoxy-13α-estra-1,3,5(10)-triene]
- IC50 [2, 8]: 83.3 nM
- IC50 [2, 9]: 34 ng/mL

SMILES: COc1ccc2c(c1)CCC1C2CC[C@@]2(C)C1C[C@H](NCc1cc(C(C)(C)C)cc(C(C)(C)C)c1O)[C@H]2O (stereo partly drawn) [Ref 1, 16β-(2-Hydroxy-3,5-di-tert-butylphenyl-methylamino)-17α-hydroxy-3-methoxy-estra-1,3,5(10)-triene, reference compound]
- IC50 [2, 8]: 1610 nM
- IC50 [2, 9]: 836 ng/mL

SMILES: CCN(CC)CCCC(C)Nc1ccnc2cc(Cl)ccc12 (stereo not drawn) [chloroquine, reference compound]
- MSD chloroquine ip 3 × 10 mg/kg ([1]; ip 3 × 10 mg/kg): 13.6 days
